Patent US20070207975A1, “Materials and methods for treating and preventing Her-2/neu overexpressing, FAS-elevated cancer cells” (EVANSTON NORTHWESTERN HEALTHCARE, priority 2006, published 2007)

Legend:
p27^Kip1 = experiment: Western blot of p27Kip1 expression; type: cell-based, human; details: BT-474; 72 hours; OA, trastuzumab or combination
Description: Densitometric values of protein bands were quantified using Scion Imaging Software (Scion Corp., Frederick, Md.).

SK-Br3 cells = experiment: TUNEL apoptosis assay, SK-Br3; type: cell-based, human; details: GLA 10 μg/mL, trastuzumab 10 μg/mL, alone or together, 48 hours
Description: FIG. 6. […] After 72 hours, a TUNEL analysis was performed using the DeadEnd® Fluorometric TUNEL System (Promega Inc.) according to the manufacturer's protocol. The immunofluorescence photomicrographs of cells undergoing apoptosis (green staining) and the corresponding DAPI-counterstained photomicrographs are shown. […] Equal amounts of total protein (50 μg per lane) were subjected to Western blot analyses with a specific antibody against the p85 fragment of PARP, and then re-probed with a β-actin antibody. […] For each pair of columns, the height of the columns on the left represents the sum of the effect of each agent alone and, therefore, the expected apoptotic cell death if their effect was additive when used in combination. […] A) Cell surface expression of Her-2/neu protein in BT-474 and SK-Br3 cells was determined by flow cytometry using a mouse anti-Her-2/neu antibody directed against the extracellular domain of the p185^Her-2/neu oncoprotein (clone Ab-5; Oncogene Research Products; San Diego, Calif.). […] The mean fluorescence signal associated with cells for labeled p185^Her-2/neu was quantified using the Geo Mean (GM) fluorescence parameter provided with the software. […] Immunoreactive bands were detected by enhanced chemiluminescence reagent (Pierce, Rockford, Ill.). […] Densitometric values of protein bands were quantified using Scion Imaging Software (Scion Corp., Frederick, Md.).

CCCCCCCCC=CCCCCCCCC(=O)O [OA, 9-octadecenoic acid]
expression of p27^Kip1 (p27^Kip1): slight increase

CCCCCC=CCC=CCC=CCCCCC(=O)O [GLA, 6,9,12-octadecatrienoic acid]
cells that underwent apoptosis (TUNEL) (SK-Br3 cells): 3% (95% CI=2 to 4%)
